{
  "source": "patent US6713504B2",
  "about": "“Antifungal molecule 2-(3,4-dimethyl-2,5-dihydro-1H-pyrrol-2-yl)-1-methylethyl pentanoate” (Council of Scientific & Industrial Research, priority 2002, dated 2004)",
  "assay_type_in_all_cases": "cell-based",
  "key": {"A. flavus": {"tested_on": "A. flavus", "assay": "Microbroth dilution assay", "parameters": "key to Activity of the compound against Aspergillus sp. after 48 hrs.: +ve if medium appeared clear with out any growth of fungi; −ve if growth was there", "method": "(§1) Pathogenic strains of fungi were obtained from the Mycology Department of Vallabhbhai Patel Chest Institute, Delhi. All the strains were grown on Sabouraud dextrose agar at 37° C. The conidia form these cultures were harvested and suspended in Sabouraud maltose broth. The number of conidia was counted using haemocytometer and their number in the suspension was adjusted to as per need of the experiment.\n(§2) The antifungal susceptibility of the fungi to various fractions or the purified component was assayed by the microbroth dilution method (Forthergill A. W. and McGough A. W., 1995, Clin. Microbiol. Procedure Handbook. In Vitro susceptibility Testing of Yeast, 5.15.1-5.15.15). The fungal spores were harvested from 96-h cultures and their number adjusted to 1×10^6 per ml. The Sabouraud Dextrose medium was dissolved in glass double distilled water and autoclaved at 10 psi for 15 min. 90-μl medium was added into the wells of cell culture plates. The different concentrations of the extract, fractions or the purified compound were prepared in duplicate wells and then the wells were inoculated with 10 μl of spore suspension. The plates were incubated at 37° C. and examined macroscopically after 48 h for the growth of fungal mycelia. The activity was represented as −ve if growth was there and +ve if medium appeared clear with out any growth of fungi.\n(§3) The antifungal susceptibility of the fungi to the purified compound was assayed by the microbroth dilution method. The different concentrations of the purified compound ranging from 21.87 to 350 μg/ml were prepared in duplicate wells by twofold dilution method. The test was done as described above."}, "A. niger": {"tested_on": "A. niger", "assay": "Microbroth dilution assay", "parameters": "key to Activity of the compound against Aspergillus sp. after 48 hrs.: +ve if medium appeared clear with out any growth of fungi; −ve if growth was there", "method": "as §1, §2, §3"}, "A. fumigatus": {"tested_on": "A. fumigatus", "assay": "Disc diffusion assay", "details": "concentration developing zone of inhibition of 6.0-mm diameter", "method": "as §1\nThe disc diffusion test was performed as per described in the section of details of invention. Amphotericin B 1.25 μg/disc was used in assay as positive control standard drug. Additional discs impregnated with equivalent amount of solvent were also used in the assay as negative controls (FIG. 5).\nThe potency of the compound was determined with the help of standard curve constructed using amphotericin B as standard drug against A. fumigatus. Standard curve was prepared according to method given in the Indian Pharmacopoeia. The corrected values of diameter of zone of inhibition along with lowest and highest values were determined. These values were plotted on semilog paper to prepare standard curve. The value of diameter of zone of inhibition obtained for compound was put into the standard curve and corresponding dose producing the effect equivalent to amphotericin B was determined to find out the potency of the compound (FIG. 6)."}, "Aspergillus species": {"tested_on": "Aspergillus species", "assay": "Spore germination inhibition assay", "details": "10 hrs incubation", "method": "as §1\nThe modified spore germination inhibition assay was performed as described earlier (Sureder P. and Janaiah C., 1987, Ind. J. Expt. Biol., 25, 233-234). The fungal species were grown on Sabouraud dextrose agar plates at 37° C. for 96 h. […] The conidia were counted and their number in the suspension was adjusted to 1×10^4 per ml. The standard drug Amphotericin B and test samples were initially dissolved in minimal quantity of dimethylsulfoxide (DMSO) and then diluted with Sabouraud dextrose medium. […] The number of germinated and non-germinated spores was counted. The percent spore germination inhibition (PSGI) was calculated using following formula [formula]\nAntifungal Activity of Pure Compound by Spore Germination Inhibition Assay The spore germination inhibition assay was performed to evaluate the activity of the compound. […] The number of germinated and non-germinated spores was counted and the percent spore germination inhibition (PSGI) was calculated. […]"}, "[1]": {"assay": "In vitro cell cytotoxicity by MTT assay", "details": "mouse; 1250.0 μg/ml; RAW cells; MTT; read-out: percent cytotoxicity", "method": "(§4) The stock culture of RAW cells was obtained from National Facility for Cell and Tissue Culture, Pune.\n(§5) The stock solution of the compound was prepared by dissolving 2.5 mg of the purified compound in minimum amount of DMSO and then diluted with double distilled water to make the final volume 1.0-ml.\n(§6) The cells were harvested at the log phase of growth confluency from the flask. The homogeneous suspension of cells was prepared in 2.0 ml of culture medium. The number of cells in the suspension was counted using a hemocytometer and the cell suspension was diluted in such a way so as to obtain 5×10^7 viable cells per ml. The viability of the cells was checked with trypan blue dye exclusion test. The cytotoxicity assay was performed in 96 wells flat bottom tissue culture plates (Nunc Nunclon). The cells (5×10^6) in 100.0 μl volume were seeded into each well. The plate was incubated at 37° C. in atmosphere of 5% (v/v) CO2 for 8 h. The wells were examined microscopically for the formation of monolayer of the cells. […] In +ve control wells, a known cytotoxic protein obtained from A. fumigatus, was used. The ZnSO4 (8.0 mg/L) was used as another +ve toxic material in another set of wells. In negative control wells equivalent amount of the solvent was used. The duplicate wells were used for each concentration of the test compound. The plates were incubated at 37° C. in 5% (v/v) CO2 incubator overnight (12 h). The medium along with floating dead cells from the wells was removed by inverting the plate. Thus, only the live cells sticking to the surface of plate were left in the wells. […] After adding the dye to the wells, the plate was kept at 37° C. in 5% CO2 for 1 h. The tissue culture plate was removed from the incubator and all the dye was aspirated. Only live cells took up the dye. The cells were lysed by adding 100.0 μl of isopropanol-HCl to the wells. After lysis of the cells, the plates were read at 540 nm using plate reader (Spectra Max 190, Molecular Device).\n(§7) The toxicity of the compound was expressed as percentage with respect to that obtained in −ve control sample. The percent cytotoxicity was calculated using the formula given below. [formula]\n(§8) The percent cytotoxicity was plotted against log concentration of the compound to find out concentration which was cytotoxic to 50% of the cells (CT50)."}, "RAW cells": {"tested_on": "RAW cells", "assay": "In vitro cell cytotoxicity by MTT assay", "method": "as §4, §5, §6, §7, §8"}},
  "data": [
    {"compound": "CCCCC(=O)OC(C)CC1NCC(C)=C1C", "note": "(stereo not shown) [PC-1, 2-(3,4-dimethyl-2,5-dihydro-1H-pyrrol-2-yl)-1-methylethyl pentanoate]", "values": [
      {"measurement": "Activity of the compound against Aspergillus sp. after 48 hrs.", "setting": "A. flavus; 21.87 μg/ml", "value": "−"},
      {"measurement": "Activity of the compound against Aspergillus sp. after 48 hrs.", "setting": "A. flavus; 43.75 μg/ml", "value": "−"},
      {"measurement": "MIC", "setting": "A. flavus; Aspergillus flavus, no visual growth, 48 h", "value": 87.5, "unit": "µg/mL"},
      {"measurement": "Activity of the compound against Aspergillus sp. after 48 hrs.", "setting": "A. niger; 21.87 μg/ml", "value": "−"},
      {"measurement": "Activity of the compound against Aspergillus sp. after 48 hrs.", "setting": "A. niger; 43.75 μg/ml", "value": "−"},
      {"measurement": "MIC", "setting": "A. niger; Aspergillus niger, no visual growth, 48 h", "value": 87.5, "unit": "µg/mL"},
      {"measurement": "MIC by disc diffusion assay", "setting": "A. fumigatus", "value": 5, "unit": "μg/disc"},
      {"measurement": "MIC by disc diffusion assay", "setting": "A. fumigatus; listed as antifungal lead molecule", "value": 5.0, "unit": "μg/disc"},
      {"measurement": "MIC by percent spore germination inhibition", "setting": "Aspergillus species", "value": 87.5, "unit": "µg/mL"},
      {"measurement": "cytotoxicity at 12 h, 1250 μg/ml", "setting": "[1]", "value": 76, "unit": "%"},
      {"measurement": "concentration completely non-toxic to the cells", "setting": "RAW cells; RAW cells, MTT", "value": "up to 312.5 μg/ml"},
      {"measurement": "CT50 (dose cytotoxic to 50% of the cells)", "setting": "RAW cells; RAW cells, MTT, 12 h", "value": 889.2, "unit": "µg/mL"},
      {"measurement": "less cytotoxic than the standard antifungal drug Amphotericin B", "setting": "RAW cells; comparison with Amphotericin B", "value": 57.8, "unit": "times"}
    ]}
  ]
}
